Test: Experiment of aldehyde-trapping ability in vitro
Conditions: for percentage content of the complex product (HPLC, 254 nm): nonanal 1.0 eq, compound 1.0 eq, 20 to 23° C.
Experimental: Objective: xerophthalmia is caused by inflammations inside the eye, and these inflammations would produce some aldehydes in vivo. If these aldehydes are not eliminated in time, the symptoms of inflammations would be accelerated and worsen the xerophthalmia. In this experiment, by simulating the in vivo environment, a relatively preferred compound was selected according to the complexing ability of the drug and the aldehyde in vivo.
Process: sulfobutyl-B-cyclodextrin (310 mg) was dissolved in phosphate buffer (1.25 mL) to prepare a solution.
Nonanal (5.0 mg, 32 μmol, 1.0 eq) and glyceryl trioleate (300 mg) were added into a reaction flask at room temperature. After the above prepared solution was added thereto, linoleic acid (300 mg) was then added thereto, and finally a dimethyl sulfoxide (0.15 mL) solution containing the compound of the present disclosure (32 μmol, 1.0 eq) was added thereto. The reaction solution was reacted at 20 to 23° C.
After stirring and reacting for 10 minutes, 100 minutes, 200 minutes, and 300 minutes, respectively, the reaction solution was allowed to stand for 2 minutes, layered and then sampled for high performance liquid detection.
Sampling method: 25 μL of the upper emulsion layer and 50 μL of the lower aqueous phase were sampled with a pipette, and diluted with 1 mL of methanol.
Nonanal has weak ultraviolet absorption at a wavelength of 254 nm, and has little influence on the content of complexation product as a whole. Therefore, the percentage content of the complexed compound at 254 nm in high performance liquid phase was compared to observe the ability of the compound to trap and complex aldehyde.
The HPLC analysis method is shown in Table 1 below, which is XBRIGE 2.5 μm, 3.0*100 mm 5-95CD_XBEH_12 min_0.8.lcm

With `CC(C)(O)c1ncc(-c2nc(C(C)(C)O)c(N)s2)cc1N` [Compound 1] the “Area under the curve AUC” value (complex product content against time, 10 to 300 minutes) was 1874 min. conversion rate, the Slope (linear fit of complex product content against time, 10 to 300 minutes) was 0.0394 and the “percentage content of the complex product (HPLC, 254 nm)” value (“percentage content” below) (reaction time 10 minutes) was 1.095. For the same compound, the “percentage content” value (reaction time 100 minutes) was 4.751, the “percentage content” value (reaction time 200 minutes) was 8.764 and the “percentage content” value (reaction time 300 minutes) was 12.496.

— US12595259B2, “Aminopyridine compound” (ZHUHAI UNITED LABORATORIES CO., LTD., priority 2020, dated 2026)
